# Reference: article PMC4473678, “Swedish mutant APP-based BACE1 binding site peptide reduces APP β-cleavage and cerebral Aβ levels in Alzheimer’s mice” (Scientific Reports, 2015)
# “Also recorded” adds a separate entry of the source.
# Experiments:
# [1] = system: recombinant BACE1; experiment: BACE1 activity (FRET) assay, cell-free; assay type: biochemical
# Description: The BACE1 inhibiting activity of APP-based BACE1 site binding peptides were determined using a fluorescence resonance energy transfer (FRET) assay (Pan Vera Co., Madison, WI), which employs a recombinant baculovirus-expressed BACE1 and a specific substrate (Rh-[…]-quencher) that is based on the APPswe mutation. This specific peptide substrate becomes highly fluorescent upon enzymatic cleavage. […] Then, 10 μL of BACE1 stop buffer (2.5 M sodium acetate) was added to the mixture. Fluorescence was read using a fluorometer, with excitation at 545 nm and emission at 585 nm.
# [2] = system: CHO/APPswe cells; experiment: APP processing in CHO/APPswe cells (WB, ELISA); assay type: cell-based, Chinese hamster; conditions: 0 to 20 μM, 24 h
# Description: Chinese hamster ovary (CHO) cells engineered to express human APPwt (CHO/APPwt cells) or human APPswe (CHO/APPswe cells) were kindly provided by Dr. Stefanie Hahn and Dr. Sascha Weggen (University of Heinrich Heine, Dusseldorf, Germany). As described in our recent report, these cells were cultured in Dulbecco’s modified Eagle’s medium with 10% fetal bovine serum, 1 mM sodium pyruvate and 100 U/mL of penicillin/streptomycin.
# Following application of blocking buffer, these cells were stained with mouse anti-BACE1 and anti-biotin antibodies overnight at 4 °C for immunocytochemical analysis. In order to determine the inhibitory effects of TAT-APPsweBBP on BACE1-mediated APP β-cleavage and subsequent Aβ production, both CHO/APPwt and CHO/APPswe cells were plated in 24 well-plates (3×10^5/well) and treated with TAT-APPsweBBP at 0 to 20 μM for 24 h. The cultured media were collected for Aβ and sAPPα analysis by ELISA and WB. Cell lysates were also prepared for analysis of APP amyloidogenic processing by WB.
# WB analysis was performed as previously described. Briefly, the proteins from the various cell-free suspensions, cell lysates and brain homogenates were electrophoretically separated using 10% bicine/tris gel (8 M urea) for proteins less than 5 kD or 10% tricine/tris gels for larger proteins. Electrophoresed proteins were transferred to polyvinylidene difluoride membranes (Bio-Rad, Richmond, CA), washed and blocked for 2 h at room temperature in Tris-buffered saline containing 5% (w/v) nonfat dry milk (TBS/NFDM). After blocking, membranes were hybridized for 2 h with various primary antibodies, washed and incubated for 1 h with the appropriate HRP-conjugated secondary antibody in TBS/NFDM. Blots were developed using the luminol reagent (Thermo Fisher Scientific, Waltham, MA).
# Mouse brains were homogenized in ice-cold lysis buffer for 30 s using a Minilys tissue homogenizer (Bertin Technologies, Montigny-le-Bretonneux, France) set at high speed, allowed to stand for 15 min at 4 °C, and centrifuged at 15000 rpm for 30 min. Soluble Aβ1−40/42 species and sAPPα were directly detected in cultured cell media or brain homogenates using the Aβ1−40/42 (Invitrogen) and sAPPα ELISA kits (IBL-America, Minneapolis, MN). Detergent-insoluble total […] species were detected in brain by extracting pellets in 5 M guanidine HCl buffer, followed by a 1:20 dilution in lysis buffer.
# [3] = system: WT mice; experiment: Rotarod test, WT mice; assay type: in vivo, mouse; conditions: 100 nmol/kg i.p. daily, 8 weeks, n = 10 per treatment
# [4] = system: brain of 5XFAD mice; experiment: BBB penetration after i.p. administration (brain section confocal imaging)
# Description: 5XFAD mice at 2 months of age (n = 5, female) were treated intraperitoneally with biotin-labeled TAT-APPsweBBP or APPsweBBP (100 nmol/kg) daily for 5 days and then euthanized 4 h after the last injection. Brain tissues were removed, sectioned and stained with anti-BACE1 and anti-biotin antibodies.
# Fixed cell cultures and brain sections were stained with indicated antibodies and then treated with donkey anti-mouse IgG conjugated with Alexa Fluor 488 (1:200) or goat anti-rabbit IgG conjugated with Alexa Fluor 594 (1:200; Invitrogen, Carlsbad, CA). The slides were then washed, mounted with DAPI medium (Vector Laboratories, Burlingame, CA) and visualized with an Olympus FV1000 confocal microscope (Tokyo, Japan).
# [5] = *P < 0.05, **P < 0.01, three independent experiments, each triplicated
sequence,measurement,setting,value
YGRKKRRQRRREISEVNLDAEFR,BACE1 inhibition (result in words),"[1]; FRET assay, APPsweBBP or TAT-APPsweBBP at 0.05, 0.5, 5 and 20 μM (Fig. 1)",competitively inhibits BACE1 activity; also recorded: much higher inhibiting activity than its prototype peptide
same,inhibition,"[1]; FRET assay, peptide final concentration 20 μM, 90 min, room temperature, read-out: percentage inhibition of BACE1",93.2 ± 2.73%
same,% of Inhibition of BACE1,"[1]; peptide final concentration 20 μM, FRET substrate Rh-EVNLDAEFK-quencher, 90 min, room temperature, dark, ex 545/em 585 nm, mean ± SD",93.23 ± 2.73%
same,holo APP expression by WB,[2],leaving holo APP expression unaltered
same,sAPPα by WB,[2],promoting
same,β-CTF by WB,[2],markedly inhibited
same,Aβ1−40/42 by ELISA,[2]; [5],significantly decreased
same,sAPPα by ELISA,[2]; [5],increased sAPPα levels in a dose-dependent manner
same,Aβ by WB,[2]; listed as TAT-APPsweBBP,markedly decreased Aβs; also recorded: markedly inhibited
same,rotarod latency to fall,[3],no differences between treatment groups on each day
same,association with BACE1 in brain,"[4]; 5XFAD mice, 2 months, n = 5, female, biotin-labeled peptide 100 nmol/kg i.p. daily 5 days, 4 h after last injection",more highly associates with BACE1 compared to APPsweBBP
same,BBB penetration / brain distribution,"[4]; 5XFAD mice, 2 months, n = 5, female, biotin-labeled peptide 100 nmol/kg i.p. daily 5 days, 4 h after last injection, confocal images, listed as TAT-APPsweBBP",highly penetrated the BBB and was detectable in both the cortical and hippocampal regions; also recorded: more permeable across the BBB; also recorded: greater distribution of TAT-APPsweBBP than APPsweBBP into cortical and hippocampal regions
same,BBB penetration (Fig. S4 legend),"[4]; peripheral injection, Fig. S4",freely enters brain microvascular endothelial cells
